Laboratory results as given in article PMC11098088, “A distinct, high-affinity, alkaline phosphatase facilitates occupation of P-depleted environments by marine picocyanobacteria” (Proceedings of the National Academy of Sciences of the …, 2024).

B1: Psip1 (Prochlorococcus marinus subsp. pastoris str. CCMP1986) (protein)
chain: ETKRIGETRALIPEAGLALNPVLDGGNGNVDFPFGNFKALATVGEVGDNGLALTGYPDGQAAYLLDNDTIRVVYQSESYATMGKAPVPETYNWEMKNGVTFSGSHIHTIDYDRAKFAKFMKNGSSAEGMVKDSGKLFNTIYNVFGDEVTKENLVWGNQALPSQRVVPFLDKYKLSEADFFLQSFCGAWYEQANKYGNGIGLEDDVWLTAEEWEIGRMFTGSKKTGRTESDKTMGLASIAVDVKNEVAYTAPALGQTGYEKLMPINPQHKDYVVIVGAGYNHNQEPAPLKVYVGMKDRLPDGSEIDYSTANERDAFLGRNGMLYGRIYGFAMPTKSYASLGLEANPAAKMMDEYLQNADAPNSFEGRFYPTSYQWGGWDNPVSVNNTEMMLWEQAGEQPEGYTFFNGDSKAEHPAVDPDINRTRYVQNMTNKGGILGFDFGFIGATLDAADGDLPEFLPATGIRVVPAIDGALTLKTGGEGVVKDGSAAIHVEKNKAAMVSPDGLYWTKHADGSYLIVDEDSGNDFGERKYVLPIKESDMTLSEPNTGYLLGLAGGKHSSRYEAGASALGGAFSKATTSEFSGSWNVTALTTKKSNGLFGSKFYSMDELAGTGEQEIIQGIDTDDQLFIGVVQARGESGGAVAEEGGDAGGQVFQFTFNLPEKSEGENIAQF
notes: predicted signal peptide removed; codon-optimized; pET-23a(+), C-terminal His-tag; E. coli BL21(DE3); reconstituted with Fe and Ca

What was measured:
[1] = molecular target: T1, Psip1 (Prochlorococcus marinus, UniProt Q7V066); experiment: inhibition of MUF release from MUF-P; type: biochemical; settings: competing with MUF-P; estimated Ki; Fe(III) and Ca2+; Pi release by phosphomolybdate assay
T1 construct: gene PMM1416; predicted signal peptide removed; codon-optimized; pET-23a(+), C-terminal His-tag; E. coli BL21(DE3); reconstituted with Fe and Ca
T1 sequence (Q7V066 24-694): B1 chain
Description: inhibition of MUF release from […] on Psip1 | natural organic P compounds: glycerol-1-phosphate (G1P) | glycerol-3-phosphate (G3P) | phosphocholine (PC) | phosphorylethanolamine (PE) | adenosine monophosphate (AMP) | glucosamine-6-phosphate (Ga6P) by measuring the inhibition of MUF release from […]

[2] = substrate: Cc1cc(=O)oc2cc(OP(=O)(O)Oc3ccc4c(C)cc(=O)oc4c3)ccc12; experiment: purified protein; settings: pH 8.8, Fe(III) and Ca2+, 30 °C, phosphodiesterase activity
[3] = substrate: O=[N+]([O-])c1ccc(OP(=O)(O)O)cc1; experiment: purified protein; type: biochemical, Prochlorococcus marinus; settings: pH 9.8, Fe(III) and Ca2+, 30 °C

Molecule | Ki [1] [µM] | Km [2] [µM] | Km [3] [µM]
Nc1ncnc2c1ncn2[C@@H]1O[C@H](COP(=O)(O)O)[C@@H](O)[C@H]1O [adenosine monophosphate] | 1.52 ± 0.22 | – | –
N[C@H]1C(O)O[C@H](COP(=O)(O)O)[C@@H](O)[C@@H]1O (some centres unmarked) [glucosamine-6-phosphate] | 0.60 ± 0.11 | – | –
O=P(O)(O)OCC(O)CO (centres unmarked) [glycerol-1-phosphate] | 1.20 ± 0.20 | – | –
O=P(O)(O)OC[C@H](O)CO [glycerol-3-phosphate] | 0.79 ± 0.15 | – | –
C[N+](C)(C)CCOP(=O)([O-])O [phosphocholine] | 2.20 ± 0.37 | – | –
NCCOP(=O)(O)O [phosphorylethanolamine] | 4.46 ± 1.08 | – | –
B1 | – | 46.1 ± 5.72 | 2.5 ± 1.18
